Laboratory results from ChEMBL document CHEMBL1201862, “PubChem BioAssay data set” (2004).
The source made the active and inactive calls.

Columns and labels:
[1] = target: Eukaryotic translation initiation factor 4E (Mus musculus, UniProt P63073); test: blockers of eIF4G binding by eIF4E – biochemical, TR-FRET, dose response (AID 855); type: functional;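 also: potency for disrupting eIF4E binding to eIF4GI seen as loss of FRET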
[2] = target: T1, Voltage-gated N-type calcium channel alpha-1B subunit/Amyloid beta A4 precursor protein-binding family A member 1 (Homo sapiens, UniProt Q00975+Q02410); type: protein assay
[3] = target: T1, Voltage-gated N-type calcium channel alpha-1B subunit/Amyloid beta A4 precursor protein-binding family A member 1; type: protein assay; remark: listed apart in the source
[4] = target: Melanin-concentrating hormone receptor 1 (Homo sapiens, UniProt Q99705); test: Fluorescence-based counterscreen for antagonists of the G-protein coupled receptor 7 (GPR7): cell-based high throughput dose response assay to identify antagonists of the melanin-concentrating hormone receptor 1 (MCHR1).; type: functional
[5] = target: T2, Neuropeptides B/W receptor type 1 (Homo sapiens, UniProt P48145); test: Fluorescence-based dose response cell-based high throughput screening assay to identify antagonists of the G-protein coupled receptor 7 (GPR7). [Related pubchem assays: 1952 (Screening assay (GPR7 antagonists).), 1880 (Summary AID.)]; type: functional
T2 sequence (P48145 whole entry): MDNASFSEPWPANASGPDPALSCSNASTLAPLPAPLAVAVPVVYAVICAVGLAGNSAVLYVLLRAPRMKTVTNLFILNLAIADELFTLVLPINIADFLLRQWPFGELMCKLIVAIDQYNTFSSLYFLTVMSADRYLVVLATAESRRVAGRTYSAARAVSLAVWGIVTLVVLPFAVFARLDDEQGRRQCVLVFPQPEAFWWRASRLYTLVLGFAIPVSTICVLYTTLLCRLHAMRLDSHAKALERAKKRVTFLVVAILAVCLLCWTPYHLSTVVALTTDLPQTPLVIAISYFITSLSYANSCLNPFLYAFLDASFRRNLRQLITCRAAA

[6] = target: T3, Eukaryotic translation initiation factor 2-alpha kinase 3 (Homo sapiens, UniProt Q9NZJ5); test: Counterscreen assay for PERK inhibitors: Dose response cell-based high throughput screening assay to measure inhibition of PERK at 6 hours. [Related pubchem assays: 1522, 1416 ]; type: functional
T3 sequence (Q9NZJ5 whole entry): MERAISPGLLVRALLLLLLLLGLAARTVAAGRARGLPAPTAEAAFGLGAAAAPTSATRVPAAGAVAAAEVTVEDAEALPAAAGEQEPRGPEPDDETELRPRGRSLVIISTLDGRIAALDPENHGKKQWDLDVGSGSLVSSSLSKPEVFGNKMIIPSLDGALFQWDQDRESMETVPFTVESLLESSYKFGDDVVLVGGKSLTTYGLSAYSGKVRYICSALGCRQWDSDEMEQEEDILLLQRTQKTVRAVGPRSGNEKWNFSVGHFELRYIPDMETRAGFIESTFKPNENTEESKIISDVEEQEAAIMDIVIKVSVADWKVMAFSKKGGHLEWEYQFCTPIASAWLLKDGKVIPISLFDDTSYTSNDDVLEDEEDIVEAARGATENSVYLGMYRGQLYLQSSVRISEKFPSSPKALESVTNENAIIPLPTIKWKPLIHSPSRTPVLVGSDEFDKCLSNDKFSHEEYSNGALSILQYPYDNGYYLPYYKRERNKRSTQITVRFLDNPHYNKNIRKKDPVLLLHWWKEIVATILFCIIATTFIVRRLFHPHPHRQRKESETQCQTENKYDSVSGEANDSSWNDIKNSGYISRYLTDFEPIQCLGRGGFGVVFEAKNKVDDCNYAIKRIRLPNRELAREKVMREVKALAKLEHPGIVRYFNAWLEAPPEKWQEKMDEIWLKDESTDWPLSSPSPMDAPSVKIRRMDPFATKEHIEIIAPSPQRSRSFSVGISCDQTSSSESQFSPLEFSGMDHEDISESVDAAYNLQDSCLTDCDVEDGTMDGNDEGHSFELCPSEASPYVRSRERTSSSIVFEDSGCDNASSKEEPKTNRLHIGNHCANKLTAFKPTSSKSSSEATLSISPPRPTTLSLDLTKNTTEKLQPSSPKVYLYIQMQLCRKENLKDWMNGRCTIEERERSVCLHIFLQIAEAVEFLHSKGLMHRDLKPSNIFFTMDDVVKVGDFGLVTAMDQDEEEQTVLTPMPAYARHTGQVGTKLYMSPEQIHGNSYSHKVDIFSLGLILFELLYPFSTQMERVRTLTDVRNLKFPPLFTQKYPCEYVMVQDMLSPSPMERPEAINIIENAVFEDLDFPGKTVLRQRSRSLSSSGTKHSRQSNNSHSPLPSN

[7] = target: T3, Eukaryotic translation initiation factor 2-alpha kinase 3; test: Dose response cell-based high-throughput screening assay to measure PERK inhibition. [Related pubchem assays: 1416 ]; type: functional
[8] = cells; type: functional, cell-based
[9] = luciferase reporter signal reduction – luminescence, H4-C neuroglioblastoma cells, dose response (AID 2458); type: functional, cell-based;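 also: H4 neuroglioblastoma cells stably carrying a luciferase reporter gene fusion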
[10] = alpha-synuclein stem-loop translation blockers – luminescence, H4 neuroglioblastoma cells, dose confirmation, confirmation (AID 2454); type: functional, cell-based;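 also: H4 neuroglioblastoma cells carrying an alpha-synuclein 5'UTR luciferase reporter; potency for inhibition of the luciferase signal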
[11] = luciferase reporter signal suppression in cells – H4 neuroglioma cells, luminescence, dose response (AID 1990); type: functional, cell-based
[12] = viability of PTEN-deleted HCT116 cells – cell-based, HCT116 PTEN knockout, dose response (AID 1047); type: functional;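 also: HCT116 colon tumor cells with PTEN knocked out; cells exposed to compound for 60 hours before readout; potency for loss of cell viability measured by luminescence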
[13] = HEK-293T viability loss after treatment – luminescence, T-cell screen hits, cytotoxicity control for TCR NF-kB inhibitor project, dose response (AID 489026); type: functional, cell-based;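 also: cells exposed to compound about 14 hours before the viability readout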
[14] = viability of HCT116 lacking mutant beta-catenin – cell-based, human colon tumor, dose response (AID 1045); type: functional;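 also: HCT116 colon tumor cells with beta catenin knocked out; cells exposed to compound for 60 hours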
[15] = alpha-synuclein stem-loop luciferase translation blockers – H4 neuroglioma cells, luminescence, confirmation (AID 1988); type: functional, cell-based
[16] = system: Vero; test: cells; type: functional, cell-based; conditions: Chlorocebus sabaeus
[17] = system: HEK293; test: cells; type: functional, cell-based; conditions: Homo sapiens
[18] = system: Vero; test: cells; type: functional; conditions: Chlorocebus sabaeus
[19] = target: Nucleotide-binding oligomerization domain-containing protein 2 (Homo sapiens, UniProt Q9HC29); test: inhibition of NOD2-driven NF-kB reporter – cell-based, luminescence, uHTS, HEK293 (AID 1566); type: functional
[20] = target: T4, Microphthalmia-associated transcription factor (Homo sapiens, UniProt O75030); test: reducers of TRPM1 reporter luminescence, concentration series – cell-based, SK-MEL-5, cherry-picked, set 3, MITF inhibitor project, dose response (AID 493073); type: functional;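 also: SK-MEL-5 melanoma cells with luciferase driven by the MITF target TRPM1 promoter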
T4 sequence (O75030 whole entry): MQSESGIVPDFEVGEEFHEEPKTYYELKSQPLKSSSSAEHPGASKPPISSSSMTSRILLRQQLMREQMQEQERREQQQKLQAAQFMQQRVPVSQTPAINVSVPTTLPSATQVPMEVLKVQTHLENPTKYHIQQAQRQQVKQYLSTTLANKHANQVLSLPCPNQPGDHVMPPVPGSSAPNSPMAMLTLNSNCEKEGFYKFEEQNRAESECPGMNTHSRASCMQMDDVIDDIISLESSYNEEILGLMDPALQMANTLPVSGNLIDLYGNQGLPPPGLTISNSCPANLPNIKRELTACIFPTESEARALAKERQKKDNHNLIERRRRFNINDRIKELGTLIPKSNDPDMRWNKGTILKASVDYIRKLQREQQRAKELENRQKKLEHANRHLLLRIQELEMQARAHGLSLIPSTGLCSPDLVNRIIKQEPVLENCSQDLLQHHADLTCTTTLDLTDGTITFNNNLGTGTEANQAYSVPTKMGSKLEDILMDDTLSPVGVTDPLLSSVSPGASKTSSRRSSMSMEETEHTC

[21] = system: HEK293; test: inhibition of NOD1-driven NF-kB reporter – cell-based, luminescence, uHTS, primary screen (AID 1578); type: functional; conditions: Homo sapiens
[22] = system: HEK293; test: cells; type: functional, cell-based; conditions: Homo sapiens; remark: listed apart in the source
[23] = system: A-375; test: MITF: Counter assay: A375 proliferation Measured in Cell-Based System Using Plate Reader - 2084-03_Inhibitor_Dose_DryPowder_Activity. [Related pubchem assays (depositor defined):AID488944]; type: functional; conditions: Homo sapiens
[24] = system: HEK293; test: cells; type: functional, cell-based; conditions: Homo sapiens; remark: listed apart in the source
[25] = system: HEK293; test: NOD2 signaling inhibitors in MDP-stimulated cells, cell-based, uHTS, luminescence (AID 2001); type: functional; conditions: Homo sapiens
[26] = HEK-293T cell viability reduction – luminescence, B-cell screen hits, cytotoxicity control for BCR NF-kB inhibitor project, dose response (AID 489021); type: functional, cell-based;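 also: HEK-293T cells carrying an NF-kB luciferase reporter; cells exposed to compound for about 14 hours before viability readout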
[27] = system: A-375; test: proliferation inhibition in MITF-low A375 cells – cell-based, cherry-pick samples, set 2, counter-screen for MITF modulator project, dose response (AID 540335); type: functional; conditions: Homo sapiens
[28] = Luminescence Cell-Based Dose Response HTS to Identify Inhibitors of 5'UTR Stem-Loop Driven Prion Protein mRNA Translation in H4 Neuroglioblastoma Cells. [Related pubchem assays: 1827 (Project Summary), 1813 (Primary HTS)]; type: functional
[29] = target: T5, CAAX prenyl protease 2 (Saccharomyces cerevisiae S288c, UniProt Q03530); type: biochemical
T5 sequence (Q03530 whole entry): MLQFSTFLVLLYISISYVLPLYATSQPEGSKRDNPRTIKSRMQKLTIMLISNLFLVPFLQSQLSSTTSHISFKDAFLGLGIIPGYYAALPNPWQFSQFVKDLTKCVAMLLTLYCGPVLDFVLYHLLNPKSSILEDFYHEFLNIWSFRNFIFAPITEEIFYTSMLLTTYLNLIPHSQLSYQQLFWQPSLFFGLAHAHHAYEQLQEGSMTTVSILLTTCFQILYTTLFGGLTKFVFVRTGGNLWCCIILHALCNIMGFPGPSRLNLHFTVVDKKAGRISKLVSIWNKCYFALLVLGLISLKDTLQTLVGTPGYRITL

[30] = target: T6, Alkaline phosphatase, tissue-nonspecific isozyme (Homo sapiens, UniProt P05186); test: potency against alkaline phosphatase TNAP – biochemical, luminescent, dose response, SAR follow-up (AID 1056)
T6 sequence (P05186 whole entry): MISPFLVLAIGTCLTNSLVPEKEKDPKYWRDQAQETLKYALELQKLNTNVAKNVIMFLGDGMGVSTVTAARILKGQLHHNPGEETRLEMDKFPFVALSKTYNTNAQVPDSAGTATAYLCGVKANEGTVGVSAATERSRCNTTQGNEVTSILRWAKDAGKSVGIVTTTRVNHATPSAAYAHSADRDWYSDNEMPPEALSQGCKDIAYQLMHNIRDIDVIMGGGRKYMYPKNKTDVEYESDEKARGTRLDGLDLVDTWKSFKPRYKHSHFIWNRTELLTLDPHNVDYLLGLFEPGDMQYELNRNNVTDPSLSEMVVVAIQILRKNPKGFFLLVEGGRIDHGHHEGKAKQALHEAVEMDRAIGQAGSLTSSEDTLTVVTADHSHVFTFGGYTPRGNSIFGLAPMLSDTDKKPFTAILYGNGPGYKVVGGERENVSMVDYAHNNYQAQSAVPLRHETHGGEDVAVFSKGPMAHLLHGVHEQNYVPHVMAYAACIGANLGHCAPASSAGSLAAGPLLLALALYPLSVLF

[31] = target: Alkaline phosphatase, placental type (Homo sapiens, UniProt P05187); test: human placental alkaline phosphatase inhibition – biochemical, luminescence, confirmation (AID 1512); type: functional

T1 sequence (Q00975 whole entry): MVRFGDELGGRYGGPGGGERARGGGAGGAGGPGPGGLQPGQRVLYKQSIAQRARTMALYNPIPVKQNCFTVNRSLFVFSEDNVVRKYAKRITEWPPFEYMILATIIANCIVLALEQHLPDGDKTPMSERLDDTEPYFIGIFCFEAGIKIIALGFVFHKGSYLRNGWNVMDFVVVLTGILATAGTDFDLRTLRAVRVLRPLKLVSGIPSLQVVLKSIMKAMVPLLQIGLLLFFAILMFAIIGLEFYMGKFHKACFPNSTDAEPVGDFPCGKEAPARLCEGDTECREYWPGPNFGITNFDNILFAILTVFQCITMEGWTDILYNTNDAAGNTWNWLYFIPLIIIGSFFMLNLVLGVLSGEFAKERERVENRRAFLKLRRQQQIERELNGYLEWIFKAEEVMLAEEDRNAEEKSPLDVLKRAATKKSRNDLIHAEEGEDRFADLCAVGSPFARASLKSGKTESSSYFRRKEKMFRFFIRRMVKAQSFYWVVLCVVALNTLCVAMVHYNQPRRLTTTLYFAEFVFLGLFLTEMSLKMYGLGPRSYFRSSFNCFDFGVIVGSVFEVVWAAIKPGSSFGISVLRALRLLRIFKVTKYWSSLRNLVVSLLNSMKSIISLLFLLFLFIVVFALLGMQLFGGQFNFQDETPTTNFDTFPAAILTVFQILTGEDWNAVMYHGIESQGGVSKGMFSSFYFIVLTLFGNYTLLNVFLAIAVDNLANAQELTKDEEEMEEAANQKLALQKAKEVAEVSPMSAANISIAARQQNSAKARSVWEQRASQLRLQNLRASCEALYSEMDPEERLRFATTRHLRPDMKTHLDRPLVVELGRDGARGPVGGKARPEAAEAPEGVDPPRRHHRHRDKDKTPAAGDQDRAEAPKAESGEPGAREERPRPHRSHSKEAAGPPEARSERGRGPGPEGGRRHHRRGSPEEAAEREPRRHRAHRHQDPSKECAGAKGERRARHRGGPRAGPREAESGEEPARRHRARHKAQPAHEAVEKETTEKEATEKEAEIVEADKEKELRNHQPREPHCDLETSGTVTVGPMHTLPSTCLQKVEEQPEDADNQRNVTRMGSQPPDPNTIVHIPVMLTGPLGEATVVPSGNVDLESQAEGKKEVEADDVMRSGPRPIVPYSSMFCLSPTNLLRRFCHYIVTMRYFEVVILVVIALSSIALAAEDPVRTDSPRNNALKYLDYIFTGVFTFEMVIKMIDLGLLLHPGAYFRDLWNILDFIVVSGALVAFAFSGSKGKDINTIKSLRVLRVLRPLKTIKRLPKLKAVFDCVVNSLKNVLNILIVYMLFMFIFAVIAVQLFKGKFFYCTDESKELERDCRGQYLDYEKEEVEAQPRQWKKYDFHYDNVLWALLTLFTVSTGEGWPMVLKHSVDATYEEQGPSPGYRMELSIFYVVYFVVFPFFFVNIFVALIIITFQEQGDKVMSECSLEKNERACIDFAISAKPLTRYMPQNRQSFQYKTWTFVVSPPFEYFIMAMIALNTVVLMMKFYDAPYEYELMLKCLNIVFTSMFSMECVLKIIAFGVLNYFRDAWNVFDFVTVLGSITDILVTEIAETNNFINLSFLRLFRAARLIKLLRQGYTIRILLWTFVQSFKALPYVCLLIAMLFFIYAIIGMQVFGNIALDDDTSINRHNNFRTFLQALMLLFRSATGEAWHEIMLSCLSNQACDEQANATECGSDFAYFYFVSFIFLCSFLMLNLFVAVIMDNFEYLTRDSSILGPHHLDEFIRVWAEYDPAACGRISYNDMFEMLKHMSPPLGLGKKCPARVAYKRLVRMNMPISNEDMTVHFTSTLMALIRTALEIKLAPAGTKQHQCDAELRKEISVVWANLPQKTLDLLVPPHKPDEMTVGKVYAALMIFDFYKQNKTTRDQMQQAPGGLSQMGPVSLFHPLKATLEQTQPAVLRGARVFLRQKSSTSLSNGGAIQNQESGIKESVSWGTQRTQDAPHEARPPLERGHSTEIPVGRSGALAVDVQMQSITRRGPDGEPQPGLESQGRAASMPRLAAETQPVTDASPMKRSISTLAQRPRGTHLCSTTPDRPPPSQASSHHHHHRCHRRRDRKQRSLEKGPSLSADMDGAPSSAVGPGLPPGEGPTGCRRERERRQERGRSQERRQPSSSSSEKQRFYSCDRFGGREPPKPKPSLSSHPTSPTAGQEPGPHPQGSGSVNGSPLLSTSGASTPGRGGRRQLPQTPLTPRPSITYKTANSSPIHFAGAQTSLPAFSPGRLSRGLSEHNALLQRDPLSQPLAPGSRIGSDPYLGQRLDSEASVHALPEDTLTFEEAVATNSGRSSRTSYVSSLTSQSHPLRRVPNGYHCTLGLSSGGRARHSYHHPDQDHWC
T1 sequence (Q02410 whole entry): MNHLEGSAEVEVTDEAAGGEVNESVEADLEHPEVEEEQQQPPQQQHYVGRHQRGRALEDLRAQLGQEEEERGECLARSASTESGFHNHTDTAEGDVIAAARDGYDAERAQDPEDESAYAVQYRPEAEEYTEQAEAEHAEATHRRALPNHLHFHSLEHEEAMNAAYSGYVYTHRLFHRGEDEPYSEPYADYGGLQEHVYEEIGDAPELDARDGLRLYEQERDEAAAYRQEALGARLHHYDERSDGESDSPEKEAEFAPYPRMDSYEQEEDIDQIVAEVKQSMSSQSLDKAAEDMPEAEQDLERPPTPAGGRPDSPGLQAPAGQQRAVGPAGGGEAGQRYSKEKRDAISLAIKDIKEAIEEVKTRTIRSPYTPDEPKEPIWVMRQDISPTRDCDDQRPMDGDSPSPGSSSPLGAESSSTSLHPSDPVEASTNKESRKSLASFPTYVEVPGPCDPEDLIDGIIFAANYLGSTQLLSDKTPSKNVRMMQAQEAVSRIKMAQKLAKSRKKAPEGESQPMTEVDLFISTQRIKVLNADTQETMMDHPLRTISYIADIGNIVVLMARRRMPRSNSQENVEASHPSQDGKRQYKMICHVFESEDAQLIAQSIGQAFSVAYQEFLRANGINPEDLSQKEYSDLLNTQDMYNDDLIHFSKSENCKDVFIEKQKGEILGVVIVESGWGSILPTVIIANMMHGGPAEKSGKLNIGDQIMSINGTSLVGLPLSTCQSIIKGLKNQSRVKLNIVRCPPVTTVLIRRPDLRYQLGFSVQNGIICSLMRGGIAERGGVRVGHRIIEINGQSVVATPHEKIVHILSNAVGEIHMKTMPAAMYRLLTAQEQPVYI
Sequence of Melanin-concentrating hormone receptor 1 (Q99705 whole entry): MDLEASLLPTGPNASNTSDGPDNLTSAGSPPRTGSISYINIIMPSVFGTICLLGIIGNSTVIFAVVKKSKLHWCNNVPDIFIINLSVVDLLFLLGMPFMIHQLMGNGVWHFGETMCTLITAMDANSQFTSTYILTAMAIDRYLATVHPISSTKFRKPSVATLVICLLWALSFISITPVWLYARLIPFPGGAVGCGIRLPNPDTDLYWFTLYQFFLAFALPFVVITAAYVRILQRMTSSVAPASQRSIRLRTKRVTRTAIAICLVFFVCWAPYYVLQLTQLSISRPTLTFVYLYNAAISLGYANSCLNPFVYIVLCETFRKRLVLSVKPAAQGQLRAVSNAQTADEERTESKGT
Sequence of Eukaryotic translation initiation factor 4E (P63073 whole entry): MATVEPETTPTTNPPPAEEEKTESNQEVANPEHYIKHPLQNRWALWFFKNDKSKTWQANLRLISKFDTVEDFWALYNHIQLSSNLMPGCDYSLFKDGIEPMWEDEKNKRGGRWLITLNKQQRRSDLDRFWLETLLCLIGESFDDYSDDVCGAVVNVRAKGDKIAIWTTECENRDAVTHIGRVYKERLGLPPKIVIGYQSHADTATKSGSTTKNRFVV
Sequence of Nucleotide-binding oligomerization domain-containing protein 2 (Q9HC29 whole entry, the tested form may be a part): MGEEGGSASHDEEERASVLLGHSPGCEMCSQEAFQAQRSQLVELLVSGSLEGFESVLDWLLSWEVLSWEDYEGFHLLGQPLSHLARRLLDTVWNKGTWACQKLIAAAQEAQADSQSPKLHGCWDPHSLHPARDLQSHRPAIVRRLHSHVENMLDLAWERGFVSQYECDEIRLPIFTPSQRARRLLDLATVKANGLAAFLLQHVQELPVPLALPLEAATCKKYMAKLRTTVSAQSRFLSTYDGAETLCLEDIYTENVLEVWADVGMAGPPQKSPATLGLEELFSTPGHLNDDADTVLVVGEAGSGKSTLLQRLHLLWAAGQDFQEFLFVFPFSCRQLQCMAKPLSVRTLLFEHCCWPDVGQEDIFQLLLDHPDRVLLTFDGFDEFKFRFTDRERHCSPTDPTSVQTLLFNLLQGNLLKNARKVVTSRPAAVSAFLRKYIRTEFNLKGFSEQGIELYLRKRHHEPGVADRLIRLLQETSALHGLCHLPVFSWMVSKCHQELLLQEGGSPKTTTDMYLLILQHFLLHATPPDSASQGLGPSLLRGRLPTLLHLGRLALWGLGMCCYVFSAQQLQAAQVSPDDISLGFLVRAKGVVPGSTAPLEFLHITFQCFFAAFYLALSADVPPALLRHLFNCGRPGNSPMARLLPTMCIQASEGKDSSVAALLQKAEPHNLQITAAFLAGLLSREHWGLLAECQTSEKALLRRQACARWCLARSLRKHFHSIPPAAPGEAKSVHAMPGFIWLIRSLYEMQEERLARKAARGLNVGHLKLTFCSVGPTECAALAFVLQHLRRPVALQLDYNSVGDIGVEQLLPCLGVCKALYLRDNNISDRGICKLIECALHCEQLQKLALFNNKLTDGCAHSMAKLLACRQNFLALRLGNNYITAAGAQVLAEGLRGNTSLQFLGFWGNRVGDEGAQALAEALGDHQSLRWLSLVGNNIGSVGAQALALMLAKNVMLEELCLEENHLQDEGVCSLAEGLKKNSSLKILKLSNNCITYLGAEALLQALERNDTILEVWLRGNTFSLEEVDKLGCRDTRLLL

## O=C(NC1CCCCC1)C1CCN(c2cnccn2)CC1
[1]
  IC50: > 64 µM (inactive)

## Cc1cc(C)c2c(=O)n(CC(=O)N3CCC(Cc4ccccc4)CC3)sc2n1
[2]
  IC50: 15.5 µM (active)
[3]
  IC50: > 50 µM (inactive)

## Cc1ccc(-n2c(SCC(N)=O)nnc2-c2ccc(S(=O)(=O)N3CCCCC3)cc2)c(C)c1
[4]
  IC50: 29.6 µM (not active)
[5]
  IC50: 5.29 µM (active)

## COC(=O)C(NC(C)=O)(Nc1ccc(C)cn1)C(F)(F)F (stereo unspecified)
[6]
  EC50: > 55.7 µM (not active)
[7]
  EC50: > 55.7 µM (not active)

## COc1ccc2c3c([nH]c2c1)C1CC2C(CC(O)C(OC)C2CO)CN1CC3 (stereo unspecified)
[6]
  EC50: > 55.7 µM (not active)
[7]
  EC50: > 55.7 µM (not active)

## CCn1c2ccccc2c2cc(Nc3cc(C)nc4ncnn34)ccc21
[8]
  EC50: 0.255 µM (active)
[9]
  EC50: 0.265 µM (active)
[10]
  EC50: 0.354 µM (active)
[11]
  EC50: < 0.1 µM (active)
[12]
  EC50: < 0.059 µM (active)
[13]
  IC50: 43.4 µM (inactive)
[14]
  EC50: < 0.059 µM (active)
[15]
  EC50: < 0.1 µM (active)

## CC1CCCCC1NC(=O)/C(C#N)=C/C=C/c1ccccc1[N+](=O)[O-] (stereo unspecified)
[16]
  IC50: 13.3 µM (active)
[17]
  IC50: > 20 µM (inactive)
[18]
  CC50: 15.6 µM (active)
[19]
  EC50: > 20 µM (inactive)
[20]
  AC50: 7.92 µM (active)
[21]
  EC50: > 20 µM (inactive)
[22]
  IC50: > 20 µM (inactive)
[23]
  AC50: 31.9 µM (active)
[24]
  IC50: 3.59 µM (active)
[25]
  IC50: 4.85 µM (inactive)

## CC(C)(C)c1ccc(-c2cc(N)[nH]n2)cc1
[8]
  EC50: 1.34 µM (active)
[9]
  EC50: 0.403 µM (active)
[10]
  EC50: 0.677 µM (active)
[11]
  EC50: < 0.1 µM (active)
[26]
  IC50: > 80 µM (inactive)
[27]
  AC50: > 35 µM (active)
[20]
  AC50: 0.511 µM (active)
[28]
  EC50: 7.28 µM (active)
[23]
  AC50: > 35 µM (active)
[15]
  EC50: < 0.1 µM (active)

## CN1C(=O)C(Cl)(Cl)C(=O)c2ccccc21
[2]
  IC50: 34.5 µM (active)
[3]
  IC50: 2.75 µM (active)

## COc1ccc(S(=O)(=O)N2CCN(CC(=O)Nc3cccc(OC)c3)CC2)cc1
[4]
  IC50: > 43.8 µM (not active)
[5]
  IC50: > 43.8 µM (not active)

## CC(C)c1ccc(/C=C2\SC(=S)N(CCC(=O)NCCCn3ccnc3)C2=O)cc1
[26]
  IC50: > 80 µM (inactive)
[29]
  AC50: > 100 µM (inactive)

## CC1CCCCN1C(=O)Cn1c(=O)n(-c2ccc(F)cc2)c(=O)c2sccc21 (stereo unspecified)
[1]
  IC50: 50 µM (inactive)

## O=C(CNc1ccncc1)c1ccc(O)c(O)c1
[30]
  IC50: > 100 µM (inactive)
[31]
  IC50: > 100 µM (inactive)
